Assay results as given in article PMC5727165, “A switch in nucleotide affinity governs activation of the Src and Tec family kinases” (Scientific Reports, 2017).
“Also recorded” adds a separate entry of the source. Like-named read-outs stand apart in the source and are kept apart here.

Legend:
[1] = target: T1, Src^32KΔC (Mus musculus, UniProt P05480); assay: Differential scanning fluorimetry (thermal stability vs nucleotide concentration); assay type: binding; details: vs AMPPNP
T1 construct: mouse Src^85-523 (Src^32KΔC); GST (cleaved yes); made in house; host or cells: baculovirus-infected Sf9 insect cells
From the text: Having observed that Itk^32K binds and is stabilised by ADP in the absence of a C-terminal tail, we investigated whether the C-terminal tail of Src influences its nucleotide binding or conformation in vitro, using a construct of Src lacking its C-tail (Src^32KΔC) and a SH2 domain mutant of Src that is incapable of binding phosphotyrosine peptides (Src^32K R175L, Supplementary Fig. 3a,b)[39]. […] Thermal stability measurements support the stabilisation of Src^32KΔC by ADP (Supplementary Fig. 6a). Thermal stabilities as a function of nucleotide concentration were measured by differential scanning fluorimetry (DSF). Samples contained 0.1 mg/ml protein in 50 mM Tris pH 7.5, 150 mM NaCl, 1 mM TCEP, and 5 mM MgCl2 with ADP, ATP, or AMPPNP concentrations ranging from 0–16 mM. Samples were measured in triplicate using a BioRad iQ™5 Multicolor Real-Time PCR Detection System. For detection of phosphorylated protein, samples were diluted and 1 ng and 15 ng were loaded to SDS-PAGE for Src and Itk proteins, respectively. Phosphorylation was measured by immunoblot.

[2] = target: T2, Itk^32K L351A (Homo sapiens, UniProt Q08881, L351A); assay: Fluorescence anisotropy binding of Mant-labelled nucleotides
T2 construct: Human Itk^171–620 (Itk^32K); GST (cleaved yes); made in house; host or cells: baculovirus-infected Sf9 insect cells
T2 sequence (Q08881 171-620 L351A): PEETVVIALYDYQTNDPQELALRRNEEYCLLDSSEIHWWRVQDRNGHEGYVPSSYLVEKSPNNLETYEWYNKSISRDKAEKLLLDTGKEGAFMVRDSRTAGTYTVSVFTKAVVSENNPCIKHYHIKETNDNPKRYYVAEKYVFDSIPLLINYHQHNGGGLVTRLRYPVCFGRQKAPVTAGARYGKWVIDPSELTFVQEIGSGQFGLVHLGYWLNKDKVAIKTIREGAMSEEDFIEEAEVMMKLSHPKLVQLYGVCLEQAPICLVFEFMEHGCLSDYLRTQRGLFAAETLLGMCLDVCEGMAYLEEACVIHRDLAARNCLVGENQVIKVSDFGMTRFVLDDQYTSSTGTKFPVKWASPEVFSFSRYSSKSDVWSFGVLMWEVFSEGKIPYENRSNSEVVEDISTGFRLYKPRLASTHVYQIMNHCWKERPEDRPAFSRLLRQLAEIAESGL
From the text: Figure 3 An allosteric switch triggers nucleotide exchange. (a) Hydrophobic stack conservation in Src family kinases. The table illustrates the amino acid identity at each of the three positions in the hydrophobic stack in addition to the invariant tryptophan (Trp260 in Src) for all Src family kinase members. The positions are presented according to their N- to C-terminal order in the primary sequences. Where it was not possible to unambiguously determine the identity of the amino acid contributed by the SH2-kinase variable linker (V3), the residue is denoted by a question mark. (b) Small angle X-ray scattering of Itk^32K L351A (black). The scattering curve for wild type Itk^32K (cyan) is overlaid for comparison. […] (c) Rigid body modelling of Itk^32K L351A and fit to ab initio molecular envelope. Displacement of both the SH3 and SH2 domains is required for a good fit to the experimental scattering curve. (d) Determination of the binding constants of Itk^32K L351A for nucleotides by fluorescence anisotropy. […] (e) Determination of the thermal stabilities and relative binding affinities of non-phosphorylated Src^32KΔC L255A for nucleotides by differential scanning fluorimetry. […] TEXT PRINTED IN THE PICTURE: (d) Mant-ADP: Itk^32K L351A (non-phos) Kd (μM): 21.0 ± 2.1 | (d) Mant-ATP: Itk^32K L351A (non-phos) Kd (μM): 31.7 ± 2.7 | (e) ADP: Src^32KΔC L255A (non-phos) [nuc]1/2 (μM): 310 ± 20; Src^32KΔC L255A (non-phos) Tm^max (°C): 52.9; Src^32KΔC L255A (non-phos) ΔTm^max (°C): + 6.8 | (e) ATP: Src^32KΔC L255A (non-phos) [nuc]1/2 (μM): 100 ± 10; Src^32KΔC L255A (non-phos) Tm^max (°C): 54.2; Src^32KΔC L255A (non-phos) ΔTm^max (°C): + 8.1 | (e) apo: Src^32KΔC L255A (non-phos) Tm^max (°C): 46.1
To establish whether hydrophobic stack disassembly triggers a switch in nucleotide binding of the kinase domain, we measured the binding of both unphosphorylated and activation loop phosphorylated (pY511) Itk^32K L351A to ADP and ATP.
The binding constants for ADP and AMPPNP were determined for Src and Itk proteins by fluorescence anisotropy, using 2′/3′-Mant-labelled nucleotides (Jena Bioscience). Increasing concentrations of Itk^32K, Itk^L351A or Src^32K were incubated with 40 μM Mant-nucleotide in 30 mM Tris pH 7.5, 200 mM NaCl, 5 mM MgCl2, and 1 mM TCEP. Measurements were made with a Perkin Elmer LS50B fluorimeter (λex = 355 nm, λem = 447 nm) at 20 °C. For each data point 50–60 measurements, each with an integration time of 1 s, were averaged. For competition nucleotide displacement assays, 40–80 μM of protein was incubated with 40 μM Mant-ADP until equilibrium was established. Unlabelled nucleotide was titrated into the reaction and fluorescence anisotropy monitored. The equilibrium inhibition constant for the unlabelled nucleotide was calculated from the fitted curve.

[3] = target: T3, Src^32K (Mus musculus, UniProt P05480); assay: Differential scanning fluorimetry (thermal stability vs nucleotide concentration); assay type: binding
T3 construct: mouse Src^85-535 (Src^32K); GST (cleaved yes); made in house; host or cells: baculovirus-infected Sf9 insect cells, co-expressed with human Csk
Protocol: We noted that the thermal stability of Src^32K initially decreases at low concentrations of ATP, before rising again at higher concentrations. This was reproducible and correlates with autophosphorylation of Tyr416 during the course of the assay (Supplementary Fig. 4h). Thermal stabilities as a function of nucleotide concentration were measured by differential scanning fluorimetry (DSF). Samples contained 0.1 mg/ml protein in 50 mM Tris pH 7.5, 150 mM NaCl, 1 mM TCEP, and 5 mM MgCl2 with ADP, ATP, or AMPPNP concentrations ranging from 0–16 mM. Samples were measured in triplicate using a BioRad iQ™5 Multicolor Real-Time PCR Detection System. For detection of phosphorylated protein, samples were diluted and 1 ng and 15 ng were loaded to SDS-PAGE for Src and Itk proteins, respectively. Phosphorylation was measured by immunoblot.

T3 sequence (P05480 85-535): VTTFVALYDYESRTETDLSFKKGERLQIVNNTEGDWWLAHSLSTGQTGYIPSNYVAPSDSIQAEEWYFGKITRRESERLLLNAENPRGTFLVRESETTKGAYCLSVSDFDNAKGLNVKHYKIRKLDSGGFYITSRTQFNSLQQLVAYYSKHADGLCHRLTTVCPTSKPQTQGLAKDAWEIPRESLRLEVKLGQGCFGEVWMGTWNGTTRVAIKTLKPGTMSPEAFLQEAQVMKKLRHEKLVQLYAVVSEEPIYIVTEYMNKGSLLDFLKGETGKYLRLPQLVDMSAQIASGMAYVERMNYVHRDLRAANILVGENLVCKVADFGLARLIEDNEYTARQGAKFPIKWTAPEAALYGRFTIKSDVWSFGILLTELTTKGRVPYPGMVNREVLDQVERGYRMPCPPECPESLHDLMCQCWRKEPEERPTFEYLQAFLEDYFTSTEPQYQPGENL
T1 sequence (P05480 85-523, stated change not applied): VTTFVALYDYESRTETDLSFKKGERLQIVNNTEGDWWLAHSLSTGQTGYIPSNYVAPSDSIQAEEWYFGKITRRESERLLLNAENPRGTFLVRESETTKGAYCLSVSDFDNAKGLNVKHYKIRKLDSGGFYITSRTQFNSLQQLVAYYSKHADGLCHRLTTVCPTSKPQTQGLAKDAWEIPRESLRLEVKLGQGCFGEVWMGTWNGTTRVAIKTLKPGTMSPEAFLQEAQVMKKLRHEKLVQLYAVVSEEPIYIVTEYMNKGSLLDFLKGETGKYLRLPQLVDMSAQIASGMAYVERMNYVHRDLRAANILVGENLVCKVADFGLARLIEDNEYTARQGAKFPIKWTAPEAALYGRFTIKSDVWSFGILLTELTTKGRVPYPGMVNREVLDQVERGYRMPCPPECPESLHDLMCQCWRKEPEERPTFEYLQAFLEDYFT

thermal stabilisation compared with other nucleotides [1]: higher thermal stability | Kd ([2]; Itk^32K L351A non-phosphorylated, read-out: Kd): 21 µM | Kd ([2]; activation loop-phosphorylated (pTyr511) Itk^32K L351A, read-out: Kd (binding constant)): 30 µM
SMILES: Nc1ncnc2c1ncn2[C@@H]1O[C@H](COP(=O)(O)OP(=O)(O)O)[C@@H](O)[C@H]1O [ADP]
thermal stabilisation compared with other nucleotides ([3]; Src^32K pY416, vs ATP): higher thermal stability with ADP than ATP | thermal stabilisation compared with other nucleotides ([3]; Src^32K, same nucleotide concentrations, vs ATP or AMPPNP): to a greater extent; also recorded: higher thermal stability
